24 molecules from PubChem BioAssay AID330 (DTP/NCI, 2004) can be followed below.

The experiment has as its system P388 leukemia ip, CD2F1 mice, survival T/C. The experiment in a line: NCI In Vivo Anticancer Drug Screen. Data for tumor model P388 Leukemia (intraperitoneal) in CD2F1 (CDF1) mice. The note with it: endpoint: median survival time, higher = longer survival. An outline of the steps: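 Mice carrying the transplanted tumor received test compound or vehicle. Survival was recorded in each group, and the value is the treated-group measurement divided by that of the vehicle-treated control group.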

Setting [1] is: dose: 12.5 mg/kg/injection, schedule: Q01DX009 (ip), vehicle: saline with Tween-80.
The mark [2] stands for this setting: dose: 25.0 mg/kg/injection, schedule: Q01DX009 (ip), vehicle: saline with Tween-80.
[3] abbreviates: dose: 50.0 mg/kg/injection, schedule: Q01DX009 (ip), vehicle: saline with Tween-80.
Setting [4] is: dose: 50.0 mg/kg/injection, schedule: Q01DX009 (ip), vehicle: Klucel (hydroxypropylcellulose) (HPC).
[5] abbreviates: dose: 100.0 mg/kg/injection, schedule: Q01DX009 (ip), vehicle: Klucel (hydroxypropylcellulose) (HPC).
Setting [6] is: dose: 200.0 mg/kg/injection, schedule: Q01DX009 (ip), vehicle: Klucel (hydroxypropylcellulose) (HPC).
[7] abbreviates: dose: 50.0 mg/kg/injection, schedule: Q01DX005 (ip), vehicle: Klucel (hydroxypropylcellulose) (HPC).
Where [8] appears, read: dose: 100.0 mg/kg/injection, schedule: Q01DX005 (ip), vehicle: Klucel (hydroxypropylcellulose) (HPC).
The mark [9] stands for this setting: dose: 200.0 mg/kg/injection, schedule: Q01DX005 (ip), vehicle: Klucel (hydroxypropylcellulose) (HPC).
The mark [10] stands for this setting: dose: 25.0 mg/kg/injection, schedule: Q01DX009 (ip), vehicle: saline.
[11] abbreviates: dose: 50.0 mg/kg/injection, schedule: Q01DX009 (ip), vehicle: saline.
Where [12] appears, read: dose: 50.0 mg/kg/injection, schedule: Q01DX005 (ip), vehicle: saline with Tween-80.
The mark [13] stands for this setting: dose: 100.0 mg/kg/injection, schedule: Q01DX005 (ip), vehicle: saline with Tween-80.
Where [14] appears, read: dose: 200.0 mg/kg/injection, schedule: Q01DX005 (ip), vehicle: saline with Tween-80.
Where [15] appears, read: dose: 25.0 mg/kg/injection, schedule: Q01DX009 (ip), vehicle: Klucel (hydroxypropylcellulose) (HPC).

“And” between values parts separate entries of the source, which are not always exact repeats. Identical values can stand only once. Toxic doses and inconclusive results are not listed.

Consider `CN(C)c1ccc2nc3ccc(=O)cc-3sc2c1`, for which the T/C reads like this: under setting [1], 100 % of control; under setting [2], 108 % of control; under setting [3], 108 % of control; (dose: 100.0 mg/kg/injection, schedule: Q01DX009 (ip), vehicle: saline with Tween-80) 120 % of control and 122 % of control.
For the molecule `CCc1cccc(CC)c1NC(=S)Nc1c(C)n(C)n(-c2ccccc2)c1=O`, the T/C runs as follows: under setting [4], 106 % of control; under setting [5], 103 % of control; under setting [6], 95 % of control.
For the molecule `N#CC(Cc1ccc(Cl)cc1)c1ccccc1` (stereo not drawn), the T/C under setting [4] is 89 % of control, the T/C under setting [5] was 95 % of control and the T/C under setting [6] was 96 % of control.
In the case of `O=C(O)CCCSC1=CC(=O)c2ccccc2C1=O`, the T/C is 89 % of control (dose: 1.56 mg/kg/injection, schedule: Q04DX003 (ip), vehicle: DMSO); 96 % of control (dose: 3.12 mg/kg/injection, schedule: Q04DX003 (ip), vehicle: DMSO); 100 % of control and 93 % of control (dose: 6.25 mg/kg/injection, schedule: Q04DX003 (ip), vehicle: DMSO); 100 % of control (dose: 12.5 mg/kg/injection, schedule: Q04DX003 (ip), vehicle: DMSO).
Take `CCN(CC)CCNC(=O)CCC(=O)O`: the T/C is, setting by setting: (dose: 50.0 mg/kg/injection, schedule: Q01DX005 (ip), vehicle: saline) 102 % of control; (dose: 100.0 mg/kg/injection, schedule: Q01DX005 (ip), vehicle: saline) 100 % of control; (dose: 200.0 mg/kg/injection, schedule: Q01DX005 (ip), vehicle: saline) 100 % of control.
Regarding `CC1(C)CC(C)(O)N(CCc2ccccc2)C(=S)N1` (stereo not drawn), the T/C by setting is: under setting [7], 106 % of control; under setting [8], 98 % of control; under setting [9], 98 % of control.
Take `CCCOC(=O)/C=C(\F)C(=O)OCCC`: the T/C by setting is: (dose: 6.25 mg/kg/injection, schedule: Q04DX002 (ip), vehicle: saline with Tween-80) 110 % of control; (dose: 12.5 mg/kg/injection, schedule: Q04DX002 (ip), vehicle: saline with Tween-80) 116 % of control; (dose: 25.0 mg/kg/injection, schedule: Q04DX002 (ip), vehicle: saline with Tween-80) 95 % of control.
Regarding `COC(=O)Nc1cn2ccc(C(Cl)=C(Cl)Cl)cc2n1`, the T/C is 107 % of control and 109 % of control under setting [4]; 117 % of control and 122 % of control under setting [5]; 116 % of control under setting [6].
In the case of `N#Cc1c(SCc2ccc(Cl)cc2)nsc1Nc1ccc(Cl)cc1`, the T/C runs as follows: under setting [1], 96 % of control; under setting [2], 91 % of control; under setting [3], 92 % of control.
Consider `C[N+](C)(C)CC(O)c1ccc(O)c(O)c1` (stereo not drawn), for which the T/C (dose: 6.25 mg/kg/injection, schedule: Q01DX009 (ip), vehicle: saline) was 113 % of control; the T/C (dose: 12.5 mg/kg/injection, schedule: Q01DX009 (ip), vehicle: saline) is 100 % of control; the T/C under setting [10] was 97 % of control; the T/C under setting [11] was 100 % of control.
Turning to `C1=C(/c2ccccc2)NCCN=C(c2ccccc2)CS/1`, the T/C under setting [12] was 104 % of control, the T/C under setting [13] was 101 % of control and the T/C under setting [14] was 101 % of control.
Regarding `CCN(CC)Cc1c(OC)ccc2[nH]c3c4ccc(Cl)cc4ncc3c12`, the T/C runs as follows: (dose: 25.0 mg/kg/injection, schedule: Q01DX005 (ip), vehicle: saline with Tween-80) 109 % of control; under setting [12], 101 % of control; under setting [13], 106 % of control; under setting [14], 112 % of control.
As to `CC1(C)N=C(N)N=C(N)N1c1ccc(OCCCCNC(=O)c2ccc(S(=O)(=O)F)cc2)c(Cl)c1`, the T/C under setting [2] was 150 % of control, the T/C under setting [10] is 161 % of control and the T/C under setting [11] is 159 % of control.
For `O=C(c1ccccc1)C(O)n1ccnc1` (stereo not drawn), the T/C runs as follows: (dose: 50.0 mg/kg/injection, schedule: Q01DX009 (ip), vehicle: distilled water + alcohol) 102 % of control; (dose: 100.0 mg/kg/injection, schedule: Q01DX009 (ip), vehicle: distilled water + alcohol) 104 % of control; (dose: 200.0 mg/kg/injection, schedule: Q01DX009 (ip), vehicle: distilled water + alcohol) 107 % of control.
For `COc1ccc(/C=N/N2CN(C(C)C(=O)O)P(Nc3ncccn3)N=C2N)cc1OC` (stereo not drawn), the T/C is, setting by setting: (dose: 60.0 mg/kg/injection, schedule: Q01DX005 (ip), vehicle: saline) 104 % of control; (dose: 120.0 mg/kg/injection, schedule: Q01DX005 (ip), vehicle: saline) 103 % of control; (dose: 240.0 mg/kg/injection, schedule: Q01DX005 (ip), vehicle: saline) 108 % of control.
For `Cc1ncoc1C(=O)Nc1ccc([N+](=O)[O-])cc1[N+](=O)[O-]`, the T/C (dose: 100.0 mg/kg/injection, schedule: Q04DX002 (ip), vehicle: Klucel (hydroxypropylcellulose) (HPC)) is 103 % of control; the T/C (dose: 200.0 mg/kg/injection, schedule: Q04DX002 (ip), vehicle: Klucel (hydroxypropylcellulose) (HPC)) is 100 % of control; the T/C (dose: 400.0 mg/kg/injection, schedule: Q04DX002 (ip), vehicle: Klucel (hydroxypropylcellulose) (HPC)) is 105 % of control.
In the case of `c1cc2c3c(cccc3c1)-c1nc3ccccc3nc1-2`, the T/C runs as follows: under setting [15], 101 % of control; under setting [4], 100 % of control; under setting [5], 92 % of control.
Turning to `O=C1NC(=O)[C@H]2C[C@H]3C(=O)NC(=O)[C@H]3[C@@H]12`, the T/C is 99 % of control under setting [15]; 101 % of control under setting [4]; 102 % of control and 107 % of control under setting [5]; 101 % of control and 107 % of control under setting [6]; 96 % of control (dose: 400.0 mg/kg/injection, schedule: Q01DX009 (ip), vehicle: Klucel (hydroxypropylcellulose) (HPC)).
Take `COc1c2c(c3c(c1CCC(=O)O)OC(C)(C)C=C3)OC(C)(C)C=C2`: the T/C under setting [7] is 102 % of control, the T/C under setting [8] is 100 % of control and the T/C under setting [9] was 102 % of control.
As for `CCOC(OCC)C(N)=O`, the T/C was 105 % of control under setting [12], 109 % of control under setting [13] and 100 % of control under setting [14].
`CC(=O)N1NC(=O)c2c(c3cc(OCc4ccccc4)ccc3n2C)C1C(C)C` (stereo not drawn): the T/C (dose: 30.0 mg/kg/injection, schedule: Q04DX002 (ip), vehicle: Klucel (hydroxypropylcellulose) (HPC)) was 98 % of control; the T/C (dose: 60.0 mg/kg/injection, schedule: Q04DX002 (ip), vehicle: Klucel (hydroxypropylcellulose) (HPC)) was 96 % of control; the T/C (dose: 120.0 mg/kg/injection, schedule: Q04DX002 (ip), vehicle: Klucel (hydroxypropylcellulose) (HPC)) was 96 % of control.
`CCCCC(CC)(CC(=N)C(C)(C)C)c1ccccc1` (stereo not drawn): the T/C is 111 % of control (dose: 50.0 mg/kg/injection, schedule: Q01DX009 (ip), vehicle: saline + alcohol); 103 % of control (dose: 100.0 mg/kg/injection, schedule: Q01DX009 (ip), vehicle: saline + alcohol); 119 % of control (dose: 200.0 mg/kg/injection, schedule: Q01DX009 (ip), vehicle: saline + alcohol).
Turning to `Cc1[nH]c(-c2ccccc2)c2[nH]c(=O)n(-c3ccccc3)c(=O)c12`, the T/C (dose: 100.0 mg/kg/injection, schedule: Q04DX003 (ip), vehicle: Klucel (hydroxypropylcellulose) (HPC)) was 93 % of control; the T/C (dose: 200.0 mg/kg/injection, schedule: Q04DX003 (ip), vehicle: Klucel (hydroxypropylcellulose) (HPC)) is 98 % of control; the T/C (dose: 400.0 mg/kg/injection, schedule: Q04DX003 (ip), vehicle: Klucel (hydroxypropylcellulose) (HPC)) was 93 % of control.
`O=C1CCCCCCCCCCC1C(O)(C(F)(F)F)C(F)(F)F` (stereo not drawn): the T/C is, setting by setting: (dose: 100.0 mg/kg/injection, schedule: Q04DX003 (ip), vehicle: saline with Tween-80) 100 % of control; (dose: 200.0 mg/kg/injection, schedule: Q04DX003 (ip), vehicle: saline with Tween-80) 90 % of control; (dose: 400.0 mg/kg/injection, schedule: Q04DX003 (ip), vehicle: saline with Tween-80) 100 % of control.
